In the test the test system is embryoid bodies formed from pluripotent stem cells. In words: Selective differentiation of embryoid bodies into hindbrain tissue (region-specific gene expression). The class given is cell-based. The settings on record: cultured 7 days. How it is done: When the density of pluripotent stem cells reached approximately 80%, residues on the cell surface were washed using D-PBS and separated into each cell. Furthermore, the cells were diluted to contain approximately 100,000 cells per 10 ml of the embryoid body formation medium, and approximately 100 μl of the medium containing the cells was injected into each well of an Ultra-Low-attachment U bottom 96 well plate (Corning, 7007). Then, the cells were added in an incubator under a CO2 atmosphere at 37° C. and cultured for about 24 hours to form embryoid bodies. After the embryoid bodies were formed as described above, after about one day, it was confirmed whether one spherical embryoid body with a clean surface was formed well in each well. A hindbrain tissue induction medium containing IWP-2 as an endogenous WNT secretion inhibitor at a concentration of 1 μM and CHIR99021 as a WNT signaling agonist at concentrations of 1 μM, 2 μM, 3 μM, and 5 μM was prepared, and then about 100 μl of the hindbrain tissue induction medium was added to each well containing the embryoid body. About 100 μl of the existing medium was removed once every two days, about 100 μl of the hindbrain tissue induction medium was added, and the embryoid bodies were cultured for 7 days to confirm whether selective differentiation of the embryoid bodies into hindbrain tissue was performed well.

Results on one compound are retold here after patent US20260055365A1, “METHOD FOR SELECTIVE DIFFERENTIATION FROM PLURIPOTENT STEM CELLS TO HINDBRAIN TISSUE” (NEXT&BIO INC., priority 2022, published 2026).

In the case of `Cc1c[nH]c(-c2cnc(NCCNc3ccc(C#N)cn3)nc2-c2ccc(Cl)cc2Cl)n1` [CHIR99021], the “expression intensities of hindbrain region-specific genes versus other brain region-specific genes” value (hindbrain tissue induction medium with CHIR99021 2 μM to 3 μM plus IWP-2 1 μM) is “much stronger than those of other brain region-specific genes”. Further, the “expression of forebrain region-specific genes versus other brain regions” value (hindbrain tissue induction medium with CHIR99021 approximately 1 μM plus IWP-2 1 μM) is recorded as “stronger than that of other brain regions”. Also, the “expression of spinal cord region-specific genes versus other brain regions” value (hindbrain tissue induction medium with CHIR99021 approximately 5 μM plus IWP-2 1 μM) is reported as “stronger than that of other brain regions”. Moreover, under “hindbrain tissue induction medium with CHIR99021 more than 1 μM and less than 5 μM plus IWP-2 1 μM, FIGS. 2 to 4”, the “expression of hindbrain region-specific genes” value was “strongly induced”.
